# From patent US5739157A, “Diastereomeric pure trifluoromethyl ketone peptide derivatives as inhibitors of human leukocyte elastase” (Zeneca Limited, priority 1994, dated 1998)
# Read-outs that look alike come from different tables or passages of the source.
# Assays:
# [1] = molecular target: T1, human neutrophil elastase (HNE) (Homo sapiens, UniProt P08246); test: Acute Hemorrhagic Assay: HNE-induced lung hemorrhage; format: in vivo, Syrian hamsters; settings: hamster, hamsters, 50 μg/animal HNE intratracheally, read-out: ED50, inhibition of HNE-induced hemorrhage
# T1 sequence (P08246 30-267): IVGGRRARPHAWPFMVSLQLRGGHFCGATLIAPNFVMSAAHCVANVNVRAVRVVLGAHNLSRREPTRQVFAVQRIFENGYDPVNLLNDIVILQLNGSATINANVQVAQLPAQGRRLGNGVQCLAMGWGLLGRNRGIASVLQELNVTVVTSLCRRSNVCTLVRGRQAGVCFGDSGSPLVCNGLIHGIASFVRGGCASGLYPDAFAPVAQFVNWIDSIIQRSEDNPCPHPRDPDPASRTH
# Description: This assay relies on monitoring only the amount of hemorrhage in the lung following intratracheal administration of human neutrophil elastase (HNE). Hemorrhage is quantified by disrupting erythrocytes recovered in lung lavage fluid and comparing that to dilutions of whole hamster blood. […] Male Syrian hamsters (fasted for 16-18 hours prior to use) are lightly anaesthetised with Brevital sodium (30 mg/kg i.p.). […] Four hours after enzyme administration, the animals are killed with an overdose of pentobarbital sodium, the thorax opened and the lungs and heart removed and the lungs cleared of extraneous material. The excised lungs are lavaged with three changes of 2 ml PBS via a tracheal cannula. The recovered lavages are pooled, the volumes (about 5 mL) are recorded and the lavages stored at 4° C. until assayed. […] The optical densities (OD) of the disrupted lavages and blood samples are determined at 540 nm. The (μL blood equivalents)/(mL lavage) are determined by comparing the OD of the test samples with the OD of the standard curve prepared from whole hamster blood. The total μL equivalents of blood recovered is determined by multiplying recovered lavage volume by the (μL blood equivalents)/(mL lavage) for each sample.
# [2] = administered in the above in vivo tests (hamsters)
# [3] = Hygroscopicity of the anhydrous crystalline form; format: physicochemical
# [4] = Epimeric stability in the solid state; format: physicochemical; settings: anhydrous form
smiles,measurement,setting,value
"COc1ccc(C(=O)N[C@H](C(=O)N2CCC[C@H]2C(=O)N[C@H](C(=O)C(F)(F)F)C(C)C)C(C)C)cc1 [compound of the invention, (S)-1-[(S)-2-(4-methoxybenzamido)-3-methylbutyryl]-N-[(S)-2-methyl-1-(trifluoroacetyl)propyl]pyrrolidine-2-carboxamide]",ED50,[1]; i.v. administration,0.59 mg/kg
same,ED50,[1]; oral dosing,5.2 mg/kg
same,overt toxicity,[2],No overt toxicity
same,hygroscopicity,[3],non-hygroscopic
same,epimeric stability,[4],good epimeric stability
